Experimental data taken from patent US9243254B2, “Method for transforming a bacterium belonging to the streptococcus genus by natural competence” (priority 2009, dated 2016).

Legend:
[1] = tested on: LMD9-Δblp::PcomX-luxABΔshp316::P32-cat; test: Natural transformation in CDM of the shp316-deleted strain upon addition of synthetic peptides (test A); type: cell-based, Streptococcus thermophilus; conditions: 1 μM synthetic peptide; for Transformation rate, With peptide addition: 1 μg/mL pGIUD0855ery, CDM, erythromycin selection; for Restoration of the competence defect: result in words
Method: A mutant strain of LMD-9 in which the shp316 gene (which is the gene encoding the peptide Shp316) has been inactivated, such as strain LMD9-Δblp::PcomX-luxABΔshp316::P32-cat (see Example 2 for details on this strain) is pre-cultivated in M17-lactose medium. The cells of the preculture are harvested (5000 g, 9 minutes, 20° C.) and washed twice in Chemically Defined Medium (CDM, see Annex I) and then resuspended in CDM. The washed cells are diluted in fresh CDM medium to obtain an optical density of 0.05 at 600 nm, and then incubated at 37° C. After 1.5 h of incubation, the culture is separated in 2 aliquots of 10 mL and 0 or 1000 nM of peptide are added in the culture samples. Finally, each 10 mL-aliquot is divided in 2 samples of 5 mL each. One of the 2 samples receives 1 μg/mL pGIUD0855ery, a plasmid bearing an erythromycin resistance gene. The competence phenotype of the samples is studied by performing natural transformation experiments as described in example 1. The cultures are grown for 6 hours and serial dilutions are plated on the surface of M17-lactose agar medium containing or not 2.5 μg/mL of erythromycin. The transformation rate in the presence or absence of peptide is calculated for each sample; it is expressed as the ratio of erythromycin-resistant cells among the total bacterial population.
The experimental strategy is described below. Strain LMD9-Δblp::PcomX-luxABΔshp316::P32-cat is precultivated in M17-lactose medium. The cells of the preculture were harvested (5000 g, 9 minutes, 20° C.) and washed twice in CDM and then resuspended in CDM. The washed cells are diluted in fresh CDM to obtain an optical density of 0.05 at 600 nm, and then incubated at 37° C. After 1.5 h of incubation, in one set of experiment, 1 μM of one of the tested synthetic peptides and 1 μg/mL of pGIUD0855ery were added to the culture; whereas 1 μg/mL of pGIUD0855ery but no synthetic peptide was added to the second set of experiment. The cultures were grown during 6 hours and serial dilutions were plated on the surface of M17-lactose agar medium containing 2.5 μg/mL of erythromycin to measure transformation efficiency.
Ability of peptides derived from Shp316 to restore the competence defect of LMD9-Δblp::PcomX-luxABΔshp316::P32-cat was further investigated focusing on the synthetic peptide PYFAGCL. Experimental work was performed as described above except that various concentrations of PYFAGCL were used: 0 nM, 1 nM, 10 nM, 100 nM, 500 nM, 1 μM, 2.5 μM and 5 μM. […]

S. thermophilus CNRZ1066 = test: Natural transformation in CDM upon addition of synthetic peptide; type: cell-based, Streptococcus thermophilus
Method: (§1) Similarly to the protocol used in example 4, strains LMD-9, LMG18311, CNRZ1066 and JIM8777 were pre-cultivated in M17-lactose medium. The cells of the precultures were harvested (5000 g, 9 minutes, 20° C.) and washed twice in CDM and then resuspended in CDM. The washed cells were diluted in fresh CDM medium to obtain an optical density of 0.05, and then incubated at 37° C. After 1.5 h of incubation, in one set of experiment, 1 μM of one of the tested synthetic peptides and 1 μg/mL of pGIUD0855ery DNA (in case of S. thermophilus strains), or 1 μg/ml of pG+host09 DNA (in case of S. salivarius strains) were added to the culture, whereas 1 μg/mL of DNA but no synthetic peptide was added to the second set of experiment. The cultures were grown during 6 hours and serial dilutions were plated on the surface of M17-lactose agar medium containing 2.5 μg/mL of erythromycin to measure transformation efficiency. Transformed S. thermophilus and S. salivarius cells are selected at 37° C. and 29° C., respectively.
Similarly to the protocol used in example 4, various S. thermophilus strains, including LMD-9, CNRZ1066 and LMG18311 used as controls, were pre-cultivated in M17-lactose medium. The cells of the precultures were harvested (5000 g, 9 minutes, 20° C.) and washed twice in CDM and then resuspended in CDM. The washed cells were diluted in fresh CDM medium to obtain an optical density of 0.05, and then incubated at 37° C. After 1.5 h of incubation, in one set of experiment, 1 μM of one of the tested synthetic peptides (LPYFAGCL) (SEQ ID NO: 85) and 1 μg/mL of pGIUD0855cat DNA were added to the culture, whereas 1 μg/mL of DNA but no synthetic peptide was added to the second set of experiment. Plasmid pGIUD0855cat is a pUC18-derivative containing a chloramphenicol resistance cassette flanked by 1-kb fragments corresponding to the upstream and downstream regions of stu0855. Upon transformation, it promotes the genetic replacement of stu0855 by P32-cat through homologous recombination (FIG. 7). The cultures were grown during 6 hours and serial dilutions were plated on the surface of M17-lactose agar medium containing 5 μg/mL of chloramphenicol to measure transformation efficiency. Transformed S. thermophilus cells were selected at 37° C.; when transformants were obtained, the transformation efficiency was calculated and is given in Table 9.
Day 2: • Centrifuge Day 1—culture (centrifugation parameters: 5000 g, 9 minutes, 15° C.) and perform two washing steps with one volume (10 mL) of CDM (centrifugation parameters: 5000 g, 9 minutes, 15° C.). • Dilute the culture in 10 mL CDM to obtain an OD600nm of 0.05. • A small volume of S. thermophilus cultures (300 μL) is then transferred in white microplate with a transparent bottom (655095; Greiner, Alphen aid Rijn, The Netherlands) and is grown at 37° C. Luminescence at 595 nm and optical density at 600 nm are recorded with the automatic Synergy HT multi-mode microplate reader. The luciferase activity catalysed by LuxAB requires the presence of nonanal as substrate. In this experimental set-up, nonanal (Acros Organics ref. 204-688-5) is supplied to the cultures by placing 50 μL of a solution containing 1% nonanal diluted in mineral oil in the spaces between the wells of a covered microplate (11). […] The luminescence and absorbance are scanned every 10 minutes during 6 hours. • To perform a competence experiment, 1 μg of donor DNA is added in the 300 μL samples in the beginning of incubation. […]

S. salivarius JIM8777 = test: as above; type: cell-based, Streptococcus salivarius
Method: as §1
Day 2: • Centrifuge Day 1—culture (centrifugation parameters: 5000 g, 9 minutes, 15° C.) and perform two washing steps with one volume (10 mL) of CDM (centrifugation parameters: 5000 g, 9 minutes, 15° C.). • Dilute the culture in 10 mL CDM to obtain an OD600nm of 0.05. • A small volume of S. thermophilus cultures (300 μL) is then transferred in white microplate with a transparent bottom (655095; Greiner, Alphen aid Rijn, The Netherlands) and is grown at 37° C. Luminescence at 595 nm and optical density at 600 nm are recorded with the automatic Synergy HT multi-mode microplate reader. The luciferase activity catalysed by LuxAB requires the presence of nonanal as substrate. In this experimental set-up, nonanal (Acros Organics ref. 204-688-5) is supplied to the cultures by placing 50 μL of a solution containing 1% nonanal diluted in mineral oil in the spaces between the wells of a covered microplate (11). The nonanal present in the solution will become volatile and there will be an equilibrium between the concentration of nonanal present in the air and in the culture samples. The luminescence and absorbance are scanned every 10 minutes during 6 hours. • To perform a competence experiment, 1 μg of donor DNA is added in the 300 μL samples in the beginning of incubation. […] In case of the sample that received DNA, make different 10-fold dilutions of the sample and plate 100 μL on the same solid selective medium. Check the viability of the cells in the samples by plating 10 μL of serial 10-fold dilutions of the cultures on M17, lactose 1% medium. Transformants are picked following 24 h of incubation at 37° C. in anaerobic conditions (gaspak BBL). […]

[2] = 1 μM PYFTGCL, 1 μg/mL pG+host09

Row | Substance | Transformation rate, With peptide addition [1] | further results
1 | AILPYFAGC (fragment) [synthetic peptide, fragment of Shp316 without the carboxy-terminal leucine] | <10^−8 | –
2 | AILPYFAGCL (fragment) [synthetic peptide corresponding to a C-terminal fragment of Shp316] | 2.21 × 10^−3 | Restoration of the competence defect [1]: allowed to restore the competence defect
3 | ILPYFAG (fragment) [synthetic peptide corresponding to a fragment of Shp316 without the C-terminal CL] | <10^−8 | –
4 | ILPYFAGC (fragment) [synthetic peptide, fragment of Shp316 without the carboxy-terminal leucine] | <10^−8 | –
5 | ILPYFAGCL (fragment) [synthetic peptide corresponding to a C-terminal fragment of Shp316] | 3.42 × 10^−3 | Restoration of the competence defect [1]: allowed to restore the competence defect
6 | LPYFAGC (fragment) [synthetic peptide, fragment of Shp316 without the carboxy-terminal leucine] | <10^−8 | –
7 | PYFAG (fragment) [synthetic peptide corresponding to a fragment of Shp316 without the C-terminal CL] | <10^−8 | –
8 | PYFAGC (fragment) [synthetic peptide, fragment of Shp316 without the carboxy-terminal leucine] | <10^−8 | –
9 | PYFTGCL (fragment) [alanine in position 4 replaced by threonine] | – | Transformation rate, With peptide addition (S. thermophilus CNRZ1066; [2]): 3.48 × 10^−7; Complementation of the transformation defect in CDM (S. thermophilus CNRZ1066; 1 μM peptide, result in words): able to complement the transformation defect; Transformation rate, With peptide addition (S. salivarius JIM8777; [2]): 5.77 × 10^−7; Complementation of the transformation defect in CDM (S. salivarius JIM8777; 1 μM peptide, result in words): able to complement the transformation defect
